# From ChEMBL document CHEMBL1201862, “PubChem BioAssay data set” (2004)
#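 The compound was tested at five concentrations on cells cultured in 96-well plates, with a 48-hour exposure period. GI50 = concentration required for 50% inhibition of growth.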 Activity calls are given as the source filed them. Rule as the data show it: active = GI50 up to about 1.1 µM and inactive = higher.
# How the values were obtained:
# Experiment in all cases: growth of human tumour cells (NCI), 48 h
# HT-29 = test system: HT-29
# OVCAR-5 = test system: OVCAR-5
# KM-20L2 = test system: KM-20L2
# BT-549 = test system: BT-549
# Hs-578T = test system: Hs-578T
# DU-145 = test system: DU-145
# TK-10 = test system: TK-10
# T47D = test system: T47D
# EKVX = test system: EKVX
# HCT-116 = test system: HCT-116
# OVCAR-4 = test system: OVCAR-4
# OVCAR-8 = test system: OVCAR-8
# SF-539 = test system: SF-539
# COLO 205 = test system: COLO 205
# MCF7 = test system: MCF7
# SN12C = test system: SN12C
# SW-620 = test system: SW-620
# MDA-MB-435 = test system: MDA-MB-435
# PC-3 = test system: PC-3
# ACHN = test system: ACHN
# HOP-62 = test system: HOP-62
# SK-MEL-5 = test system: SK-MEL-5
# UO-31 = test system: UO-31
# NCI-H23 = test system: NCI-H23
# RXF 393 = test system: RXF 393
# HCT-15 = test system: HCT-15
# M14 = test system: M14
# HL-60 = test system: HL-60
# SNB-75 = test system: SNB-75
# SR = test system: SR
# NCI-H522 = test system: NCI-H522
# K562 = test system: K562
# NCI/ADR-RES = test system: NCI/ADR-RES
# U-251 = test system: U-251
# A549 = test system: A549
# SK-OV-3 = test system: SK-OV-3
# MDA-N = test system: MDA-N
# NCI-H226 = test system: NCI-H226
# 786-0 = test system: 786-0
# IGROV-1 = test system: IGROV-1
# SF-268 = test system: SF-268
# Malme-3M = test system: Malme-3M
# A498 = test system: A498
# SK-MEL-2 = test system: SK-MEL-2
# SNB-19 = test system: SNB-19
# OVCAR-3 = test system: OVCAR-3
# KM12 = test system: KM12
# NCI-H460 = test system: NCI-H460
# MOLT-4 = test system: MOLT-4
# RPMI-8226 = test system: RPMI-8226
# LOX IMVI = test system: LOX IMVI
# CAKI-1 = test system: CAKI-1
# SF-295 = test system: SF-295
# UACC-62 = test system: UACC-62
# HCC 2998 = test system: HCC 2998
# UACC-257 = test system: UACC-257
# CCRF-CEM = test system: CCRF-CEM
# SK-MEL-28 = test system: SK-MEL-28
# MDA-MB-231 = test system: MDA-MB-231
# HOP-92 = test system: HOP-92
structure (smiles),measurement,setting,value
COc1ccc(/C=C\c2cc(OC)c(OC)c(OC)c2)cc1O [COMBRETASTATIN A4],GI50,HT-29,1.72 µM (inactive)
same,GI50,OVCAR-5,0.34 µM (active)
same,GI50,KM-20L2,1.61 µM (inactive)
same,GI50,BT-549,> 10 µM (inactive)
same,GI50,Hs-578T,0.583 µM (active)
same,GI50,DU-145,0.01 µM (active)
same,GI50,TK-10,0.204 µM (active)
same,GI50,T47D,41 µM (inactive)
same,GI50,EKVX,1.22 µM (inactive)
O=C(CNc1ccc(Cl)cc1)Nn1c(-c2ccccc2)nc2ccccc2c1=O,GI50,HCT-116,1.62 µM (inactive)
same,GI50,HT-29,6.27 µM (inactive)
same,GI50,OVCAR-4,7.5 µM (inactive)
same,GI50,OVCAR-8,3.72 µM (inactive)
same,GI50,SF-539,4.37 µM (inactive)
same,GI50,COLO 205,6.82 µM (inactive)
same,GI50,MCF7,3.32 µM (inactive)
same,GI50,OVCAR-5,14.7 µM (inactive)
same,GI50,SN12C,7.43 µM (inactive)
same,GI50,SW-620,5.12 µM (inactive)
same,GI50,MDA-MB-435,8.17 µM (inactive)
same,GI50,PC-3,12.6 µM (inactive)
same,GI50,ACHN,8.89 µM (inactive)
same,GI50,HOP-62,14.9 µM (inactive)
same,GI50,SK-MEL-5,2.84 µM (inactive)
same,GI50,UO-31,6.75 µM (inactive)
same,GI50,NCI-H23,5.43 µM (inactive)
same,GI50,RXF 393,6.55 µM (inactive)
same,GI50,HCT-15,6.7 µM
same,GI50,M14,6.18 µM (inactive)
same,GI50,BT-549,2.32 µM (inactive)
same,GI50,HL-60,6.65 µM (inactive)
same,GI50,Hs-578T,18.4 µM (inactive)
same,GI50,SNB-75,10.1 µM (inactive)
same,GI50,SR,3.28 µM (inactive)
same,GI50,NCI-H522,2.99 µM (inactive)
same,GI50,DU-145,15.1 µM (inactive)
same,GI50,K562,3.35 µM (inactive)
same,GI50,NCI/ADR-RES,6.79 µM (inactive)
same,GI50,U-251,3.47 µM (inactive)
same,GI50,A549,14.2 µM (inactive)
same,GI50,SK-OV-3,10.1 µM (inactive)
same,GI50,MDA-N,7.38 µM (inactive)
same,GI50,NCI-H226,5.52 µM (inactive)
same,GI50,786-0,4.18 µM (inactive)
same,GI50,IGROV-1,3.84 µM (inactive)
same,GI50,SF-268,4.62 µM (inactive)
same,GI50,Malme-3M,6.55 µM (inactive)
same,GI50,A498,14.9 µM (inactive)
same,GI50,SK-MEL-2,16 µM (inactive)
same,GI50,SNB-19,10.8 µM (inactive)
same,GI50,OVCAR-3,12.1 µM (inactive)
same,GI50,KM12,10.8 µM (inactive)
same,GI50,NCI-H460,8.79 µM (inactive)
same,GI50,TK-10,16.4 µM (inactive)
same,GI50,MOLT-4,2.49 µM (inactive)
same,GI50,RPMI-8226,4.47 µM (inactive)
same,GI50,LOX IMVI,1.3 µM (inactive)
same,GI50,T47D,4.83 µM (inactive)
same,GI50,EKVX,18.1 µM (inactive)
same,GI50,CAKI-1,11.4 µM (inactive)
same,GI50,SF-295,15.1 µM (inactive)
same,GI50,UACC-62,3.89 µM (inactive)
same,GI50,HCC 2998,11.1 µM (inactive)
same,GI50,UACC-257,12.8 µM (inactive)
same,GI50,CCRF-CEM,2.04 µM (inactive)
same,GI50,SK-MEL-28,6.64 µM (inactive)
same,GI50,MDA-MB-231,4.79 µM (inactive)
same,GI50,HOP-92,5.07 µM (inactive)
CC(C)(CN)CN,GI50,HCT-116,> 100 µM (inactive)
same,GI50,HT-29,> 100 µM (inactive)
same,GI50,OVCAR-4,> 100 µM (inactive)
same,GI50,OVCAR-8,> 100 µM (inactive)
same,GI50,SF-539,> 100 µM (inactive)
same,GI50,COLO 205,> 100 µM (inactive)
same,GI50,MCF7,> 100 µM (inactive)
same,GI50,OVCAR-5,> 100 µM (inactive)
same,GI50,SN12C,> 100 µM (inactive)
same,GI50,SW-620,> 100 µM (inactive)
same,GI50,MDA-MB-435,> 100 µM (inactive)
same,GI50,PC-3,> 100 µM (inactive)
same,GI50,ACHN,> 100 µM (inactive)
same,GI50,HOP-62,> 100 µM (inactive)
same,GI50,SK-MEL-5,> 100 µM (inactive)
same,GI50,UO-31,> 100 µM (inactive)
same,GI50,NCI-H23,> 100 µM (inactive)
same,GI50,RXF 393,> 100 µM (inactive)
same,GI50,HCT-15,> 100 µM
same,GI50,M14,> 100 µM (inactive)
same,GI50,BT-549,> 100 µM (inactive)
same,GI50,HL-60,> 100 µM (inactive)
same,GI50,Hs-578T,> 100 µM (inactive)
same,GI50,SNB-75,> 100 µM (inactive)
same,GI50,SR,> 100 µM (inactive)
same,GI50,NCI-H522,> 100 µM (inactive)
same,GI50,DU-145,> 100 µM (inactive)
same,GI50,K562,> 100 µM (inactive)
same,GI50,NCI/ADR-RES,> 100 µM (inactive)
same,GI50,U-251,> 100 µM (inactive)
same,GI50,A549,> 100 µM (inactive)
same,GI50,SK-OV-3,> 100 µM (inactive)
same,GI50,MDA-N,> 100 µM (inactive)
same,GI50,NCI-H226,> 100 µM (inactive)
same,GI50,786-0,> 100 µM (inactive)
same,GI50,IGROV-1,> 100 µM (inactive)
same,GI50,SF-268,> 100 µM (inactive)
same,GI50,Malme-3M,> 100 µM (inactive)
same,GI50,A498,> 100 µM (inactive)
same,GI50,SK-MEL-2,> 100 µM (inactive)
same,GI50,SNB-19,> 100 µM (inactive)
same,GI50,OVCAR-3,> 100 µM (inactive)
same,GI50,KM12,> 100 µM (inactive)
same,GI50,NCI-H460,> 100 µM (inactive)
same,GI50,TK-10,> 100 µM (inactive)
same,GI50,MOLT-4,> 100 µM (inactive)
same,GI50,RPMI-8226,> 100 µM (inactive)
same,GI50,LOX IMVI,> 100 µM (inactive)
same,GI50,T47D,> 100 µM (inactive)
same,GI50,EKVX,> 100 µM (inactive)
same,GI50,CAKI-1,> 100 µM (inactive)
same,GI50,SF-295,> 100 µM (inactive)
same,GI50,UACC-62,> 100 µM (inactive)
same,GI50,HCC 2998,> 100 µM (inactive)
same,GI50,UACC-257,> 100 µM (inactive)
same,GI50,CCRF-CEM,> 100 µM (inactive)
same,GI50,SK-MEL-28,> 100 µM (inactive)
same,GI50,MDA-MB-231,> 100 µM (inactive)
same,GI50,HOP-92,> 100 µM (inactive)
